Data as given in article PMC12670160, “A drug-repurposing screen of FDA- and EMA-approved drugs identifies two NF-κB inhibitors active against eumycetoma” (Journal of Antimicrobial Chemotherapy, 2025).
≈ marks a conversion by molar mass, not a printed value. Entries after “also recorded” stand apart in the source; their conditions may differ. Where a name gives a salt, the structure may show the parent alone.

Legend:
M. mycetomatis [1] = assay: In vitro susceptibility, averages over M. mycetomatis isolates (average metabolic activity at 2 µM, mean MIC); type: cell-based; settings: Madurella mycetomatis, 96 h, 4 days at 37°C, CellTiter-Glo, average of 3 isolates, 20% or below = inhibition
Experimental: M. mycetomatis isolate MM55 was used to screen the Oncode library. This strain was kindly provided by Prof. […] The three M. mycetomatis isolates were identified by ITS sequencing and maintained at −80°C at Erasmus MC. Prior to in vitro screening, isolates were cultured on Sabouraud agar plates (BD, Erembodegem, Belgium) at 37°C.
The Oncode Drug Repurposing library was based on the drug repurposing library from the Drug Repurposing Hub of the Broad Institute and recreated by the Oncode institute.[13] […] Each well of the 384-well plates contained 0.6 µL of a 200 µM stock concentration of compound, resulting in a final concentration of 2 µM when the fungus was added. […] Furthermore, this concentration could also be reached in the G. mellonella larvae.[8],[11] The prepared 384-well plates were transferred on dry ice to the Erasmus MC and stored at −80°C until they were screened.
Each plate also contained a growth control (60 µL of M. mycetomatis hyphal suspension, plus 0.6 µL of DMSO) and a negative control (60 µL of culture medium, plus 0.6 µL of DMSO). Plates were then incubated for 4 days at 37°C, after which 30 µL of CellTiter-Glo 3D Cell Viability reagent was added to every well.[19] After 25 min of incubation at room temperature, the luminescence was measured with a CytoFluor Series 4000 luminometer (PerSeptive Biosystems, Framingham, MA, USA). To determine the metabolic activity, the following formula was used:
Percentagemetabolicactivity=(Absorbancetestluminensence−AbsorbanceNCluminensence/AbsorbanceGCluminensence−AbsorbanceNCluminensence)×100
where, GC is growth control and NC is negative control. The luminescence measured for the GC is considered as 100% metabolic activity. The luminescence for the NC is considered as 0% metabolic activity.

[2] = tested on: M. mycetomatis strain mm55; assay: IC50 and MIC determination, CellTiter-Glo, strain mm55; type: cell-based, Madurella mycetomatis; settings: Madurella mycetomatis; for IC50: concentration inhibiting 50% of fungal hyphae growth; for MIC: concentration with complete growth inhibition
M. mycetomatis strain P1 [3] = assay: IC50 and MIC determination, CellTiter-Glo, strain P1; type: cell-based, Madurella mycetomatis; settings: Madurella mycetomatis, P1
M. mycetomatis strain I1 [4] = assay: IC50 and MIC determination, CellTiter-Glo, strain I1; type: cell-based, Madurella mycetomatis; settings: Madurella mycetomatis, I1
[5] = tested on: healthy uninfected G. mellonella larvae; settings: 20 µL of 20 µM injected; for Toxicity in G. mellonella larvae at 20 µM: 10 day observation, toxic if more than 20% of larvae died; for larval survival: 10 days, uninfected larvae
Experimental: (§1) For in vivo experiments, sixth-week instar G. mellonella larvae were purchased from Blue-Lagoon, Maassluis, The Netherlands. The larvae were raised and kept in the dark at room temperature. Larvae without any discoloration and weighing around 500 mg were selected for experiments.
To determine the toxicity, 15 healthy uninfected larvae were injected with 20 µL of 20 µM compound as previously described.[16] […] As a control, a separate group of larvae were injected with 20 µL of PBS. Larvae were housed in Petri dishes with Whatman paper at 37°C in the dark. Survival was monitored for 10 days.

[6] = tested on: M. mycetomatis MM55-infected G. mellonella larvae; assay: Therapeutic efficacy in M. mycetomatis-infected G. mellonella larvae (survival, log-rank); type: in vivo, Galleria mellonella; settings: 20 µL of 20 µM at 4, 28 and 52 h post infection; 10 days
Experimental: as §1
The wet weight was determined and 10 mL of PBS per gram of mycelia was added. The suspension was then sonicated for 2 min to achieve a particle size of 10 µm. The fungal suspension (4 mg/40 µL) was injected into the last left pro-leg of a healthy G. mellonella larva with an insulin 29G U-100 needle to reach a final inoculum of 4 mg/larva. Larvae were placed in Petri dishes containing Whatman paper in a 37°C incubator.
A control group was also included in which M. mycetomatis-infected larvae were treated with PBS or with 1 mg/kg amphotericin B (Fungizone, Bristol Myers Squibb, Utrecht, The Netherlands). […] The treatment was repeated at 28 h post infection and 52 h post infection via different prolegs. The infection was monitored for 10 days.
To compare the survival rates between PBS treatment control and the different experimental groups a log-rank test was performed. All data were processed and performed in GraphPad Prism 10.

thioredoxin reductase = tested on: thioredoxin reductase; parameters: method as in PMID 39816643; settings: cited from earlier work
M. mycetomatis [7] = tested on: M. mycetomatis; parameters: method as in PMID 34209118; settings: in vitro; cited from earlier work
M. mycetomatis strain I1 [8] = assay: microbe, parasite or virus in culture; parameters: species or system Madurella mycetomatis hyphae; settings: Madurella mycetomatis, I1, 96 h
Experimental: (§2) The Oncode Drug Repurposing library was based on the drug repurposing library from the Drug Repurposing Hub of the Broad Institute and recreated by the Oncode institute.[13] The library contained 5631 drugs.[18] A copy of this library was plated out on 384-well plates with lids (cat no. 655180; Greiner Bio-One, Alphen aan den Rijn, The Netherlands) by the Leiden University Medical Center. Each well of the 384-well plates contained 0.6 µL of a 200 µM stock concentration of compound, resulting in a final concentration of 2 µM when the fungus was added. From the previous libraries we screened, we noted that there are several compounds able to inhibit M. mycetomatis at this concentration in vitro. Furthermore, this concentration could also be reached in the G. mellonella larvae.[8],[11] The prepared 384-well plates were transferred on dry ice to the Erasmus MC and stored at −80°C until they were screened. We created a second library from the original library, containing only those 29 compounds that were active in the first screen. […] To determine the in vitro susceptibility of M. mycetomatis to the compounds, a hyphal inoculum was prepared as described elsewhere.[19] This M. mycetomatis hyphal suspension (60 µL) was added to each of the wells in the 384-well plate, leading to a final testing concentration of 2 µM per compound. Each plate also contained a growth control (60 µL of M. mycetomatis hyphal suspension, plus 0.6 µL of DMSO) and a negative control (60 µL of culture medium, plus 0.6 µL of DMSO). Plates were then incubated for 4 days at 37°C, after which 30 µL of CellTiter-Glo 3D Cell Viability reagent was added to every well.[19] After 25 min of incubation at room temperature, the luminescence was measured with a CytoFluor Series 4000 luminometer (PerSeptive Biosystems, Framingham, MA, USA). To determine the metabolic activity, the following formula was used: For each of these 29 active compounds, the IC50 and MIC were determined for M. mycetomatis strains MM55, P1 and I1 (Table 1 and Table S1).

M. mycetomatis strain P1 [9] = assay: microbe, parasite or virus in culture; parameters: species or system Madurella mycetomatis hyphae; settings: Madurella mycetomatis, P1, 96 h
Experimental: as §2

[10] = tested on: M. mycetomatis strain mm55; assay: microbe, parasite or virus in culture; parameters: species or system Madurella mycetomatis hyphae; settings: Madurella mycetomatis, MM55, 96 h
Experimental: as §2

M. mycetomatis [11] = tested on: M. mycetomatis; parameters: method as in PMID 35398930, PMID 15793113, PMID 36005544, PMID 34181477, PMID 22964246; settings: against M. mycetomatis; cited from earlier work
[12] = tested on: M. mycetomatis-infected G. mellonella larvae; settings: M. mycetomatis-infected G. mellonella larvae; cited from earlier work
eumycetoma = settings: cited from earlier work
[13] = tested on: M. mycetomatis mouse model; parameters: method as in PMID 26150103; settings: cited from earlier work
[14] = tested on: primary human neutrophils exposed to C. albicans; parameters: method as in PMID 19609651; settings: cited from earlier work
[15] = tested on: itraconazole-susceptible and itraconazole-resistant Aspergillus fumigatus; parameters: method as in PMID 37037064; settings: cited from earlier work
[16] = tested on: vancomycin-resistant Staphylococcus aureus strains; settings: cited from earlier work
Rhodnius prolixus = tested on: Rhodnius prolixus; parameters: method as in PMID 30233391; settings: insect vector Rhodnius prolixus; cited from earlier work

CC(C)(C)c1ccc(S(=O)(=O)/C=C/C#N)cc1 [bay117085]
activity at 2 µM (M. mycetomatis [1]): 4%
IC50 [2]: 1.51 µM
MIC [2]: 2 µM (≈ 0.499 µg/mL)
IC50 (M. mycetomatis strain P1 [3]): 0.85 µM
MIC (M. mycetomatis strain P1 [3]): 2 µM (≈ 0.499 µg/mL)
IC50 (M. mycetomatis strain I1 [4]): 0.72 µM
MIC (M. mycetomatis strain I1 [4]): 1 µM (≈ 0.249 µg/mL)
Toxicity in G. mellonella larvae at 20 µM [5]: not toxic
larval survival [5]: above 80%
Survival of M. mycetomatis-infected larvae versus PBS [6]: prolonged the survival; also recorded: prolonged larval survival
thioredoxin reductase inhibition (thioredoxin reductase): able to inhibit thioredoxin reductase

O=C(Nc1ccc([N+](=O)[O-])cc1Cl)c1cc(Cl)ccc1O [niclosamide]
activity against M. mycetomatis (M. mycetomatis [7]): active

Cc1c(N)nc([C@H](CC(N)=O)NC[C@H](N)C(N)=O)nc1C(=O)N[C@H](C(=O)N[C@H](C)[C@@H](O)[C@H](C)C(=O)N[C@H](C(=O)NCCc1nc(-c2nc(C(=O)NCCCNCCCCN)cs2)cs1)[C@@H](C)O)[C@@H](O[C@@H]1O[C@@H](CO)[C@@H](O)[C@H](O)[C@@H]1O[C@@H]1O[C@H](CO)[C@@H](O)[C@H](OC(N)=O)[C@@H]1O)c1cnc[nH]1 [ONC0002990, bleomycetin]
IC50 (M. mycetomatis strain I1 [8]): 0.2 µM
MIC (M. mycetomatis strain I1 [8]): 0.5 µM (≈ 0.72 µg/mL)
IC50 (M. mycetomatis strain P1 [9]): < 0.03 µM
MIC (M. mycetomatis strain P1 [9]): < 0.03 µM
IC50 [10]: 0.21 µM
MIC [10]: 0.5 µM (≈ 0.72 µg/mL)

CCC(C)n1ncn(-c2ccc(N3CCN(c4ccc(OCC5COC(Cn6cncn6)(c6ccc(Cl)cc6Cl)O5)cc4)CC3)cc2)c1=O (stereo not drawn) [Itraconazole hydrochloride]
activity at 2 µM (M. mycetomatis [1]): 6.1%
IC50 [2]: 1.58 µM
MIC [2]: 2 µM
IC50 (M. mycetomatis strain P1 [3]): 0.84 µM
MIC (M. mycetomatis strain P1 [3]): 2 µM
IC50 (M. mycetomatis strain I1 [4]): 0.78 µM
MIC (M. mycetomatis strain I1 [4]): 1 µM
MIC50 (M. mycetomatis [11]): 0.06 µg/mL
larval survival [12]: No prolonged larval survival
lesion size or β-glucan levels (eumycetoma; 400 mg/day, first 6 months of treatment): no reduction
cure rate (eumycetoma; itraconazole combined with surgery, clinical trial setting): 80%
activity in M. mycetomatis mouse model [13]: lack of activity

Cc1ccc(S(=O)(=O)/C=C/C#N)cc1 [bay117082]
chemotaxis, phagocytosis and killing activity of neutrophils [14]: able to reduce

CC(=O)OC[C@H]1O[C@@H]([S-])[C@H](OC(C)=O)[C@@H](OC(C)=O)[C@@H]1OC(C)=O.CCP(CC)CC.[Au+] [auranofin]
Aspergillus biofilm formation [15]: inhibitory activity
antifungal activity ([15]; itraconazole-susceptible and itraconazole-resistant A. fumigatus): potent antifungal activity
thioredoxin reductase inhibition (thioredoxin reductase): able to inhibit thioredoxin reductase

O=C(Nc1cc(C(F)(F)F)cc(C(F)(F)F)c1)c1cc(Cl)ccc1O [IKK2 inhibitor V (IMD-0354), IMD-0354]
activity at 2 µM (M. mycetomatis [1]): 2.3%
IC50 [2]: 1.76 µM
MIC [2]: 2 µM (≈ 0.767 µg/mL)
IC50 (M. mycetomatis strain P1 [3]): 0.17 µM
MIC (M. mycetomatis strain P1 [3]): 0.25 µM (≈ 0.0959 µg/mL)
IC50 (M. mycetomatis strain I1 [4]): 1.68 µM
MIC (M. mycetomatis strain I1 [4]): 2 µM (≈ 0.767 µg/mL)
Toxicity in G. mellonella larvae at 20 µM [5]: not toxic
larval survival [5]: above 80%
Survival of M. mycetomatis-infected larvae versus PBS [6]: prolonged the survival; also recorded: prolonged larval survival
MIC ([16]; Gram-positive vancomycin-resistant Staphylococcus aureus strains): 0.06 µg/mL (≈ 0.156 µM)
biofilm formation ([16]; vancomycin-resistant staphylococci): able to inhibit biofilm formation
expression of antimicrobial peptides (Rhodnius prolixus): decreased
mortality after Trypanosoma cruzi infection (Rhodnius prolixus): reduced mortality
